Target: Acetylcholinesterase (Homo sapiens, UniProt P22303)
Test: Inhibitory activity against acetylcholinesterase in human blood
Format: tissue-based

Chain of Acetylcholinesterase (P22303 whole entry): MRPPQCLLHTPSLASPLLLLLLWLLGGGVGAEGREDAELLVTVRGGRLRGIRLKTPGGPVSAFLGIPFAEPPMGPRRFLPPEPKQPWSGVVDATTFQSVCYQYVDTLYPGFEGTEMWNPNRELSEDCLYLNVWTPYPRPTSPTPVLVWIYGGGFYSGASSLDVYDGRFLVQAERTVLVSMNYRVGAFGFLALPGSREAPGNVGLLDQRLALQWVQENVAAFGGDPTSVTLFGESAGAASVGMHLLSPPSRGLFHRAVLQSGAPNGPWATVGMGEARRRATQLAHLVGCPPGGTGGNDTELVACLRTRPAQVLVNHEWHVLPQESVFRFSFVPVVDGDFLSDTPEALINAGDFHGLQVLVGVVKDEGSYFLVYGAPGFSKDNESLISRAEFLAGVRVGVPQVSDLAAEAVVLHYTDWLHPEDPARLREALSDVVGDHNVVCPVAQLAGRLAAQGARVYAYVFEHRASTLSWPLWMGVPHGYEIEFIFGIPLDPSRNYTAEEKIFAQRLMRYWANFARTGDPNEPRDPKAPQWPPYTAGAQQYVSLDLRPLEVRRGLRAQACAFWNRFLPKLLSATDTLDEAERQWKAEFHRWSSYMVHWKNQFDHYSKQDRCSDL

Compound `CCCN1CCCC(c2cccc(OC(=O)NC(C)C)c2)C1` (stereo unspecified) has an IC50 of 10 µM.
